{
  "source": "patent US10863763B2",
  "about": "“Prebiotic compositions and uses thereof” (priority 2013, dated 2020)",
  "origin": "cited, not measured here",
  "key": {"[1]": {"settings": "50% of patty fat replaced, v full fat patty"}, "[2]": {"settings": "heating at high temperatures for 60 min"}, "[3]": {"settings": "enriched cereal bars, 2 day test period"}, "[4]": {"assay": "not given", "remark": "listed apart in the source"}, "[5]": {"settings": "4 h 15 min after administration; 58 normal to slightly overweight women"}, "[6]": {"assay": "not given", "remark": "listed apart in the source"}, "[7]": {"tested_on": "lactobacilli and bifidobacteria in the faeces", "settings": "4.5 g/d for 21 d; healthy and constipated adults"}, "[8]": {"assay": "not given", "remark": "listed apart in the source"}, "[9]": {"settings": "in vivo"}, "[10]": {"settings": "in vivo", "remark": "listed apart in the source"}, "[11]": {"assay": "not given", "remark": "listed apart in the source"}, "[12]": {"settings": "meta-analysis, 10 trials, n=489; 95% CI 1.8, 0.4"}, "[13]": {"tested_on": "anorexic gut peptides (GLP-1 & PYY)", "settings": "after 2 weeks of supplementation, relative to maltodextrin placebo"}, "[14]": {"settings": "8 g/d for 12 months; adolescents, n=97; placebo 1.2"}, "[15]": {"settings": "21 g/d, 3 months; BMI >25 kg/m2, n=48; relative to maltodextrin control"}, "[16]": {"settings": "16 g/d × 2 wk v maltodextrin placebo"}, "[17]": {"settings": "low pH alone or Maillard reaction conditions"}, "[18]": {"settings": "11 RCT, overweight and obese adults"}},
  "note": "Where two headings read alike, the source gives them in different places.",
  "data": [
    {"compound": "inulin", "values": [
      {"measurement": "measures of satiety", "setting": "[1]", "value": "no effect"},
      {"measurement": "total fat intake and total energy intake on the test day", "setting": "[1]; 33 males", "value": "lower"},
      {"measurement": "degradation to di-D-fructose dianhydrides", "setting": "[2]", "value": "substantial degradation"},
      {"measurement": "treatment-related toxicity, genotoxicity or carcinogenicity", "setting": "animal studies and clinical trial reports", "value": "no evidence"},
      {"measurement": "detrimental effects on mineral absorption, lipid metabolism or glycaemic control", "setting": "in vivo", "value": "failed to find evidence"},
      {"measurement": "energy intake or any of the 6 subjective ratings of hunger between treatments", "setting": "[3]", "value": "no difference"},
      {"measurement": "prebiotic activity", "setting": "[4]; heating at low pH", "value": "reduced"},
      {"measurement": "prebiotic activity", "setting": "[4]; [17]", "value": "stable"},
      {"measurement": "decrease in energy intake at an ad libitum lunch", "setting": "[5]", "value": 89.84, "unit": "kcal"}
    ]},
    {"compound": "short chain FOS [scFOS]", "values": [
      {"measurement": "measures of satiety at breakfast or lunch and food intake during an ad libitum lunch", "setting": "[6]; two separate doses of 0, 5 and 8 g", "value": "failed to alter"},
      {"measurement": "energy intake over the remainder of the day", "setting": "[6]; women consuming the 16 g dose", "value": "significantly lower"}
    ]},
    {"compound": "glucomannan", "values": [
      {"measurement": "SOFA fatty acid concentrations in the faeces", "setting": "[7]", "value": "increased"},
      {"measurement": "proportion of lactobacilli and bifidobacteria in the faeces", "setting": "[7]", "value": "increased"},
      {"measurement": "weight loss", "setting": "[8]; 9 RCT, n=379, trials averaging 5.2 weeks, 95% CI −1.53, −0.05, 1.24 to 15.1 g/d", "value": 0.79, "unit": "kg"},
      {"measurement": "weight change in the 3 studies supplying glucomannan in biscuits or granola bars", "setting": "[8]; biscuits or granola bars", "value": "failed to report any significant weight change"},
      {"measurement": "weight loss in obese subjects (mean)", "setting": "[8]; obese subjects", "value": "−1.30 (−1.69, −0.91) kg"},
      {"measurement": "safety in toxicological and genotoxicity studies", "setting": "[9]", "value": "safe"}
    ]},
    {"compound": "β-glucan [reference compound]", "values": [
      {"measurement": "energy intake or any of the 6 subjective ratings of hunger between treatments", "setting": "[3]", "value": "no difference"}
    ]},
    {"compound": "[Cr]", "note": "[chromium]", "values": [
      {"measurement": "adverse effects reported by other authors", "setting": "[10]", "value": "constipation, decreased appetite and urticaria"},
      {"measurement": "mean difference in weight in favour of chromium over placebo", "setting": "[11]; 11 RCT, n=866, 95% CI −0.96, −0.03, 137 to 1000 μg/d", "value": -0.5, "unit": "kg"},
      {"measurement": "BMI or waist to hip circumference", "setting": "[11]; [18]", "value": "no effect"},
      {"measurement": "percentage body fat", "setting": "[11]; [18]", "value": "modest reduction"},
      {"measurement": "adverse effects in participants", "setting": "[11]; disappeared on withdrawal, reappeared on reintroduction", "value": "watery stools, vertigo, weakness, nausea, vomiting, dizziness and headaches"}
    ]},
    {"compound": "chromium picolinate", "values": [
      {"measurement": "weighted mean difference in weight in favour of chromium picolinate over placebo", "setting": "[12]", "value": 1.1, "unit": "kg"}
    ]},
    {"compound": "fructooligosaccharides [FOS]", "values": [
      {"measurement": "release of anorexic gut peptides (GLP-1 & PYY) in response to a test meal", "setting": "[13]", "value": "minor transient increases"},
      {"measurement": "increase in BMI over 12 months", "setting": "[14]", "value": 0.7, "unit": "kg/m2"},
      {"measurement": "weight change", "setting": "[15]", "value": "−1.03 (SD 0.43) kg"},
      {"measurement": "detrimental effects on mineral absorption, lipid metabolism or glycaemic control", "setting": "in vivo", "value": "failed to find evidence"},
      {"measurement": "single dose at which GI adverse effects (bloating, flatulence and diarrhoea) become evident", "setting": "in vivo", "value": "> 20", "unit": "g/day"},
      {"measurement": "treatment-related toxicity, genotoxicity or carcinogenicity", "setting": "in vivo", "value": "no evidence"},
      {"measurement": "prebiotic activity", "setting": "[4]; heating at low pH", "value": "reduced"},
      {"measurement": "prebiotic activity", "setting": "[4]; [17]", "value": "stable"},
      {"measurement": "fullness at dinner", "setting": "[16]", "value": "increased"},
      {"measurement": "prospective food intake at dinner", "setting": "[16]", "value": "decreased"},
      {"measurement": "reduction in total energy intake over a 24 hour test period", "setting": "[16]", "value": 5, "unit": "%"},
      {"measurement": "satiety at breakfast and dinner", "setting": "[16]", "value": "significantly increased"}
    ]}
  ]
}
